Data taken from patent US4749710A, “Immunosuppressive agents” (priority 1985, dated 1988).

Assays:
[1] = test system: murine cytotoxic T-lymphocyte responses; assay: cells; format: cell-based; settings: for CTL activity (% specific ^51 Cr release): 90:1 effector to target
Source text: Immunosuppressive Activity of Vitamin D compounds on cytotoxic T lymphocyte Responses-General Test Description
Cytotoxic thymus-derived lymphocytes (CTL) constitute an important aspect of immune function and, as a result, play a key role in the rejection of grafted cells, tissues and organs. It is, therefore, essential to suppress CTL generation in a clinical situation in which CTL function is antithetical to the desired outcome as, for example, in transplantation. Cytotoxic T-lymphocytes have been studied for several years by many investigators and methods to evaluate CTL responses in vitro are well established.
As described below, CTL responses as affected by Vitamin D derivatives, were studied in vitro using cells from lab animals and human volunteers. Cytotoxic T-lymphocytes were generated from responder lymphoid cells in tissue culture medium during an incubation period of 6 days by exposure to foreign stimulator cells, i.e. from a genetically disparate source. A portion of the resultant effector cells were CTL capable of killing fresh cells related to the stimulator cells employed in the 6 day culture. To detect killing of cells by CTL, fresh target cells were incubated in excess ^51 chromium (as sodium chromate) until they were extensively labelled. Since target cells will retain the internalized radioisotope as long as they are viable but release the label when they are killed, CTL activity was assessed by quantitating the chromium released from target cells after a 4 or 18 hour incubation with CTL. Immunosuppression produced by Vitamin D derivatives was gauged as the ability to inhibit CTL responses during the initial incubation period relative to control cultures to which no Vitamin D derivative was added.
Female BALB/c By and C57BL/6 mice were obtained from Jackson Laboratories and were used between 8 and 10 weeks of age. Mice were given food and water ad libitum and were kept in a 12 hour light and 12 hour dark cycle.
For murine cultures, minimal essential medium with Hank's salts was supplemented to 1 millimolar with sodium pyruvate, to 0.1 millimolar with nonessential amino acids, to 2 millimolar with 1-glutamine, to 10% (v/v) with heat-inactivated fetal bovine serum, to 50 micrograms per ml with gentamicin, and to 1000 milligrams per liter with sodium bicarbonate and was used as tissue culture medium.
Stock solutions of Vitamin D derivatives were made in argon-saturated ethanol at a final concentration of 1×10^-2 molar, were covered with argon before sealing and were stored at -20° C. in the dark. Reduced lighting conditions were always employed when working with compounds. Compounds were diluted in tissue culture medium to 1×10^-4 molar and all subsequent dilutions were done in tissue culture medium containing 1% v/v ethanol. The final dilution into culture vessels was 1:10 thus keeping the vehicle concentration constant at 0.1% while varying the concentration of compound as tabulated in the results. For purposes of control, mixed leukocyte cultures were incubated in medium only (medium control) or in medium containing a final concentration of 0.1% ethanol (vehicle control).
Murine cytotoxic T-lymphocytes were generated in mixed leukocyte cultures by known methods. Specifically, single cell suspensions were prepared from spleens by gentle disruption in balanced salt solution (Hanks' balanced salt solution supplemented to 10%, v/v, with fetal bovine serum). After sedimentation on ice to remove particulate debris, cell suspensions were centrifuged at 400xg and were resuspended in fresh balanced salt solution. Cells to be used as stimulator cells were precluded from proliferating or generating cytotoxic T-lymphocytes by exposure to 1000 rads of gamma irradiation using a ^137 cesium source. […]

[2] = test system: human mixed leukocyte-tumor cultures; assay: Total viable cells recovered from human mixed leukocyte-tumor cultures; format: cell-based; settings: Table IV
Method: Human cytotoxic T-lymphocytes were generated in mixed leukocyte-tumor cultures by known methods. Specifically, blood from normal volunteer donors was drawn into heparinized syringes, diluted 1:1 with calcium-magnesium free Hanks' balanced salt solution (Ca-Mg free HBSS), and layered over lymphocyte separation medium (Litton Bionetics, Kensington, MD). After centrifugation at 500xg for 20-30 min at room temperature, peripheral blood mononuclear cells were harvested from the interface. The peripheral blood mononuclear leukocytes were centrifuged and resuspended in Ca-Mg free HBSS and were subsequently separated from platelets by centrifugation at 500xg through a solution of 20% sucrose and 1% human AB serum in Ca-Mg free HBSS. The cells were washed once and finally resuspended in tissue culture medium. […] Cells to be used as stimulator cells in mixed leukocyte-tumor cultures were irradiated with 10,000 rads of gamma irradiation to preclude proliferation in culture. Mixed leukocyte-tumor cell cultures were established in 16 mm tissue culture wells at a final volume of 1.5 ml per well containing 2×10^6 peripheral blood mononuclear leukocytes and 5×10^4 irradiation-inactivated stimulator cells. […]

C=C1/C(=C\C=C2/CCC[C@]3(C)[C@@H]([C@H](C)C[C@H](O)CC(C)(C)O)CC[C@@H]23)C[C@@H](O)C[C@@H]1O [1α,23S,25-(OH)3 --D3, 1α,23S,25-Trihydroxycholecalciferol]
inhibition at 10 µM ([1]; Mus musculus, T-lymphocyte, Table I, 1 × 10^-5 molar, vs vehicle control, read-out: Inhibition of CTL activity (%)): 77% | inhibition at 1 µM ([1]; Mus musculus, T-lymphocyte, Table I, 1 × 10^-6 molar, vs vehicle control, read-out: Inhibition of CTL activity (%)): 59% | inhibition at 0.1 µM ([1]; Mus musculus, T-lymphocyte, Table I, 1 × 10^-7 molar, vs vehicle control, read-out: Inhibition of CTL activity (%)): 43% | inhibition at 0.01 µM ([1]; Mus musculus, T-lymphocyte, Table I, 1 × 10^-8 molar, vs vehicle control, read-out: Inhibition of CTL activity (%)): 18% | inhibition at 0.001 µM ([1]; Mus musculus, T-lymphocyte, Table I, 1 × 10^-9 molar, vs vehicle control, read-out: Inhibition of CTL activity (%)): 0% | CTL activity (% specific ^51 Cr release) ([1]; Table I, 1 × 10^-5 molar): 10 % specific ^51 Cr release | CTL activity (% specific ^51 Cr release) ([1]; Table I, 1 × 10^-6 molar): 18 % specific ^51 Cr release | CTL activity (% specific ^51 Cr release) ([1]; Table I, 1 × 10^-7 molar): 25 % specific ^51 Cr release | CTL activity (% specific ^51 Cr release) ([1]; Table I, 1 × 10^-8 molar): 36 % specific ^51 Cr release | CTL activity (% specific ^51 Cr release) ([1]; Table I, 1 × 10^-9 molar): 45 % specific ^51 Cr release | suppression of murine cytotoxic T-lymphocyte responses (in words) ([1]; in vitro): suppress murine cytotoxic T-lymphocyte responses | toxicity at concentrations suppressing human CTL generation (in words) [2]: non-toxic
